# Data taken from ChEMBL document CHEMBL1149649, “Synthesis and anti-influenza activities of carboxyl alkoxyalkyl esters of 4-guanidino-Neu5Ac2en (zanamivir)” (Bioorg Med Chem Lett, 2007).
# Experiments:
# [1] = system: Influenza A virus; test: Antiviral activity against influenza A/Jifang/15/90 (H3N2) virus in MDCK cells by CPE assay; type: functional, organism-based
# [2] = system: Influenza A virus; test: Antiviral activity against influenza A/Yuefang/243/72 (H3N2) virus in MDCK cells by CPE assay; type: functional, organism-based
# [3] = system: Mus musculus; test: Weight change in mouse at 100 mg/kg, ip bid after 14 days; type: ADME, organism-based; set-up: dose 100 mg/kg, route intraperitoneal; conditions: in vivo, 336 h
# [4] = system: Influenza B virus; test: Antiviral activity against influenza B/Jingfang/76/98 in MDCK cells by CPE assay; type: functional, organism-based
# [5] = system: Influenza A virus; test: Antiviral activity against influenza A/Jingfang/262/95(H1N1) virus in MDCK cells by CPE assay; type: functional, organism-based
# [6] = system: Influenza A virus; test: Antiviral activity against influenza A/Hanfang/359/95 (H3N2) virus in MDCK cells by CPE assay; type: functional, organism-based
# [7] = system: Influenza A virus; test: Antiviral activity against influenza A/Jingfang/Fm1 (H1N1) infected in mouse assessed as mean survival time of mouse at 100 mg/kg, ip bid after 2 hrs of viral infection for 5 days; type: functional; conditions: route intraperitoneal
# [8] = system: Influenza B virus; test: Antiviral activity against influenza B/Jifang/13/97 virus in MDCK cells by CPE assay; type: functional, organism-based
# [9] = system: Mus musculus; test: Survival of mouse at 100 mg/kg, ip bid after 5 days; type: ADME, organism-based; set-up: dose 100 mg/kg, route intraperitoneal; conditions: in vivo, 120 h
# [10] = system: Influenza B virus; test: Antiviral activity against influenza B/Sichuan/83/2000 virus in MDCK cells by CPE assay; type: functional, organism-based
# [11] = system: Influenza A virus; test: Antiviral activity against influenza A/Jingfang/Fm1 (H1N1) infected in mouse assessed as mean survival time of mouse at 62.5 mg/kg, ip bid after 2 hrs of viral infection for 5 days; type: functional; conditions: route intraperitoneal
# [12] = system: Influenza A virus; test: Antiviral activity against influenza A/Jingfang/Fm1 (H1N1) infected in mouse assessed as survival of mouse at 62.5 mg/kg, ip bid after 2 hrs of viral infection for 5 days; type: functional; conditions: route intraperitoneal
# [13] = system: Mus musculus; test: Weight change in mouse at 31.25 mg/kg, po bid after 14 days; type: ADME, organism-based; set-up: dose 31.25 mg/kg, route oral; conditions: in vivo, 336 h
# [14] = system: Influenza A virus; test: Antiviral activity against influenza A/Jingfang/Fm1 (H1N1) infected in mouse assessed as mean survival time of mouse at 31.25 mg/kg, po bid after 2 hrs of viral infection for 5 days; type: functional
# [15] = system: Mus musculus; test: Survival of mouse at 62.5 mg/kg, ip bid after 5 days; type: ADME, organism-based; set-up: dose 62.5 mg/kg, route intraperitoneal; conditions: in vivo, 120 h
# [16] = system: Influenza A virus; test: Antiviral activity against influenza A/Jingfang/Fm1 (H1N1) infected in mouse assessed as mean survival time of mouse at 125 mg/kg, po bid after 2 hrs of viral infection for 5 days; type: functional
# [17] = system: Mus musculus; test: Weight change in mouse at 62.5 mg/kg, ip bid after 14 days; type: ADME, organism-based; set-up: dose 62.5 mg/kg, route intraperitoneal; conditions: in vivo, 336 h
# [18] = system: Mus musculus; test: Survival of mouse at 125 mg/kg, po bid after 5 days; type: ADME, organism-based; set-up: dose 125 mg/kg, route oral; conditions: in vivo, 120 h
# [19] = system: Mus musculus; test: Survival of mouse at 62.5 mg/kg, po bid after 5 days; type: ADME, organism-based; set-up: dose 62.5 mg/kg, route oral; conditions: in vivo, 120 h
# [20] = system: Influenza A virus; test: Antiviral activity against influenza A/Jingfang/Fm1 (H1N1) infected in mouse assessed as survival of mouse at 31.25 mg/kg, po bid after 2 hrs of viral infection for 5 days; type: functional
# [21] = system: Mus musculus; test: Weight change in mouse at 125 mg/kg, po bid after 14 days; type: ADME, organism-based; set-up: dose 125 mg/kg, route oral; conditions: in vivo, 336 h
# [22] = system: Mus musculus; test: Weight change in mouse at 62.5 mg/kg, po bid after 14 days; type: ADME, organism-based; set-up: dose 62.5 mg/kg, route oral; conditions: in vivo, 336 h
# [23] = system: Mus musculus; test: Survival of mouse at 31.25 mg/kg, po bid after 5 days; type: ADME, organism-based; set-up: dose 31.25 mg/kg, route oral; conditions: in vivo, 120 h
# [24] = system: Influenza A virus; test: Antiviral activity against influenza A/Jingfang/Fm1 (H1N1) infected in mouse assessed as mean survival time of mouse at 62.5 mg/kg, po bid after 2 hrs of viral infection for 5 days; type: functional
# [25] = system: Influenza A virus; test: Antiviral activity against influenza A/Jingfang/Fm1 (H1N1) virus infected in mouse assessed as survival of mouse at 125 mg/kg, po bid after 2 hrs of viral infection for 5 days; type: functional
# [26] = system: Influenza A virus; test: Antiviral activity against influenza A/Jingfang/Fm1 (H1N1) infected in mouse assessed as survival of mouse at 62.5 mg/kg, po bid after 2 hrs of viral infection for 5 days; type: functional
SMILES,IC50 [1],IC50 [2],IC50 [4],"IC50 ([5]; Influenza A virus, MDCK)",IC50 [6],IC50 [8],IC50 [10],further results
NC(=O)c1ncn([C@@H]2O[C@H](CO)[C@@H](O)[C@H]2O)n1 [RIBAVIRIN],5.04 µM,5.85 µM,15.2 µM,176 µM,7.01 µM,96.2 µM,164 µM,Activity [3]: 11.5 g; Activity [7]: 14 days; Activity [9]: Active
CCCCCCCCCCCCCCOCCCOC(=O)C1=C[C@H](NC(=N)N)[C@@H](NC(C)=O)[C@H]([C@H](O)[C@H](O)CO)O1,2.49 µM,0.315 µM,23.3 µM,18.9 µM,1.06 µM,31.5 µM,37.8 µM,–
CC(=O)N[C@H]1[C@H]([C@H](O)[C@H](O)CO)OC(C(=O)O)=C[C@@H]1NC(=N)N [ZANAMIVIR],0.469 µM,0.075 µM,223 µM,–,0.385 µM,–,1580 µM,IC50 ([5]; mdck): 16.7 µM
CCCCCCCCCCCCCCCCOCCCOC(=O)C1=C[C@H](NC(=N)N)[C@@H](NC(C)=O)[C@H]([C@H](O)[C@H](O)CO)O1,3.01 µM,0.301 µM,22.3 µM,18.1 µM,3.06 µM,23.4 µM,22.3 µM,–
CCCCCCCCCCCCCCCCCCOCCOC(=O)C1=C[C@H](NC(=N)N)[C@@H](NC(C)=O)[C@H]([C@H](O)[C@H](O)CO)O1,2.94 µM,0.226 µM,66.6 µM,26.8 µM,5.89 µM,247 µM,21.8 µM,Activity [11]: 11.5 days; survival at 62.5 mg/kg [12]: 60%; Activity [13]: 12.7 g; Activity [14]: 9.1 days; Activity [15]: Active; Activity [16]: 11.2 days; Activity [17]: 13.9 g; Activity [18]: Active; Activity [19]: Active; survival at 31.25 mg/kg [20]: 10%; Activity [21]: 12.5 g; Activity [22]: 13.5 g; Activity [23]: Active; Activity [24]: 10.2 days; survival at 125 mg/kg [25]: 60%; survival at 62.5 mg/kg [26]: 40%
